Measurements from the supplement of paper PMC11451515.

Columns and labels:
SEM cells [1] = experiment: AUC of viability dose-response curve (% viability x log10 dose units); higher = less sensitive; conditions: 48 h
Summary of the method: (§1)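 Area under the curve was integrated by trapezoidal rule from a log-logistic fit of normalised viability, with curves exceeding full viability scaled and quality-control failures removed. The fit had four parameters over log10 doses. Viability came from CellTiter-Glo One luminescence, normalised per plate to DMSO and cell-free wells, after leukemia cells adapted to each medium (500 or 1000 cells/well, 1536-well plates) were exposed to library compounds in DMSO for 48 h at 37°C. The 11 threefold doses ran from 47 μM to 0.79 nM.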

NOMO1 [2] = experiment: as above; conditions: 48 h
Summary of the method: as §1

P12-Ichikawa [3] = experiment: as above; conditions: 48 h
Summary of the method: as §1

SEM cells [4] = experiment: cell viability relative to DMSO control; higher = less cytotoxic; conditions: 48 h
Summary of the method: (§2)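 Viability, reported as a per-plate percentage of DMSO wells with cell-free wells as background, came from CellTiter-Glo One luminescence. Reading took place after 48 h at 37°C. Before that, NOMO1 or SEM (500 cells/well) or P12-Ichikawa (1000 cells/well) leukemia cells, adapted for at least four passages in each medium, were seeded in 1536-well plates (5 μl) and pin-dosed with library compounds in DMSO, 47 μM to 0.79 nM over 11 threefold points.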

NOMO1 [5] = experiment: as above; conditions: HPLM + 10% dialyzed FBS, 48 h
Summary of the method: as §2

P12-Ichikawa [6] = experiment: as above; conditions: HPLM + 10% dialyzed FBS, 48 h
Summary of the method: as §2

[7] = RPMI 5 mM glucose + 10% dialyzed FBS

Structure (SMILES): CCCC[S+](=N)([O-])CCC(N)C(=O)O (centres undefined)
- AUC of viability dose-response curve (SEM cells [1]; HPLM + 10% dialyzed FBS): 459
- AUC of viability dose-response curve (SEM cells [1]; RPMI 5 mM glucose + 10% FBS): 462
- AUC of viability dose-response curve (SEM cells [1]; [7]): 458
- AUC of viability dose-response curve (NOMO1 [2]; HPLM + 10% dialyzed FBS): 441
- AUC of viability dose-response curve (NOMO1 [2]; RPMI 5 mM glucose + 10% FBS): 462
- AUC of viability dose-response curve (NOMO1 [2]; [7]): 461
- AUC of viability dose-response curve (P12-Ichikawa [3]; HPLM + 10% dialyzed FBS): 453
- AUC of viability dose-response curve (P12-Ichikawa [3]; RPMI 5 mM glucose + 10% FBS): 469
- AUC of viability dose-response curve (P12-Ichikawa [3]; [7]): 465
- cell viability (SEM cells [4]; HPLM + 10% dialyzed FBS, 0.000781 µM): 87.1%
- cell viability (SEM cells [4]; HPLM + 10% dialyzed FBS, 0.00234 µM): 78.5%
- cell viability (SEM cells [4]; HPLM + 10% dialyzed FBS, 0.00702 µM): 102%
- cell viability (SEM cells [4]; HPLM + 10% dialyzed FBS, 0.0211 µM): 107%
- cell viability (SEM cells [4]; HPLM + 10% dialyzed FBS, 0.0632 µM): 124%
- cell viability (SEM cells [4]; HPLM + 10% dialyzed FBS, 0.19 µM): 108%
- cell viability (SEM cells [4]; HPLM + 10% dialyzed FBS, 0.569 µM): 132%
- cell viability (SEM cells [4]; HPLM + 10% dialyzed FBS, 1.71 µM): 102%
- cell viability (SEM cells [4]; HPLM + 10% dialyzed FBS, 5.12 µM): 109%
- cell viability (SEM cells [4]; HPLM + 10% dialyzed FBS, 15.4 µM): 97.5%
- cell viability (SEM cells [4]; HPLM + 10% dialyzed FBS, 46.1 µM): 41.6%
- cell viability (SEM cells [4]; RPMI 5 mM glucose + 10% FBS, 0.000781 µM): 114%
- cell viability (SEM cells [4]; RPMI 5 mM glucose + 10% FBS, 0.00234 µM): 109%
- cell viability (SEM cells [4]; RPMI 5 mM glucose + 10% FBS, 0.00702 µM): 136%
- cell viability (SEM cells [4]; RPMI 5 mM glucose + 10% FBS, 0.0211 µM): 131%
- cell viability (SEM cells [4]; RPMI 5 mM glucose + 10% FBS, 0.0632 µM): 113%
- cell viability (SEM cells [4]; RPMI 5 mM glucose + 10% FBS, 0.19 µM): 136%
- cell viability (SEM cells [4]; RPMI 5 mM glucose + 10% FBS, 0.569 µM): 128%
- cell viability (SEM cells [4]; RPMI 5 mM glucose + 10% FBS, 1.71 µM): 104%
- cell viability (SEM cells [4]; RPMI 5 mM glucose + 10% FBS, 5.12 µM): 125%
- cell viability (SEM cells [4]; RPMI 5 mM glucose + 10% FBS, 15.4 µM): 103%
- cell viability (SEM cells [4]; RPMI 5 mM glucose + 10% FBS, 46.1 µM): 84.6%
- cell viability (SEM cells [4]; RPMI 5 mM glucose + 10% dialyzed FBS, 0.000781 µM): 120%
- cell viability (SEM cells [4]; RPMI 5 mM glucose + 10% dialyzed FBS, 0.00234 µM): 108%
- cell viability (SEM cells [4]; RPMI 5 mM glucose + 10% dialyzed FBS, 0.00702 µM): 131%
- cell viability (SEM cells [4]; RPMI 5 mM glucose + 10% dialyzed FBS, 0.0211 µM): 122%
- cell viability (SEM cells [4]; RPMI 5 mM glucose + 10% dialyzed FBS, 0.0632 µM): 137%
- cell viability (SEM cells [4]; RPMI 5 mM glucose + 10% dialyzed FBS, 0.19 µM): 140%
- cell viability (SEM cells [4]; RPMI 5 mM glucose + 10% dialyzed FBS, 0.569 µM): 128%
- cell viability (SEM cells [4]; RPMI 5 mM glucose + 10% dialyzed FBS, 1.71 µM): 146%
- cell viability (SEM cells [4]; RPMI 5 mM glucose + 10% dialyzed FBS, 5.12 µM): 157%
- cell viability (SEM cells [4]; RPMI 5 mM glucose + 10% dialyzed FBS, 15.4 µM): 111%
- cell viability (SEM cells [4]; RPMI 5 mM glucose + 10% dialyzed FBS, 46.1 µM): 120%
- cell viability (NOMO1 [5]; 0.000781 µM): 120%
- cell viability (NOMO1 [5]; 0.00234 µM): 122%
- cell viability (NOMO1 [5]; 0.00702 µM): 138%
- cell viability (NOMO1 [5]; 0.0211 µM): 138%
- cell viability (NOMO1 [5]; 0.0632 µM): 157%
- cell viability (NOMO1 [5]; 0.19 µM): 131%
- cell viability (NOMO1 [5]; 0.569 µM): 150%
- cell viability (NOMO1 [5]; 1.71 µM): 142%
- cell viability (NOMO1 [5]; 5.12 µM): 148%
- cell viability (NOMO1 [5]; 15.4 µM): 89.2%
- cell viability (NOMO1 [5]; 46.1 µM): 28.7%
- cell viability (P12-Ichikawa [6]; 0.000781 µM): 113%
- cell viability (P12-Ichikawa [6]; 0.00234 µM): 124%
- cell viability (P12-Ichikawa [6]; 0.00702 µM): 127%
- cell viability (P12-Ichikawa [6]; 0.0211 µM): 126%
- cell viability (P12-Ichikawa [6]; 0.0632 µM): 132%
- cell viability (P12-Ichikawa [6]; 0.19 µM): 137%
- cell viability (P12-Ichikawa [6]; 0.569 µM): 135%
- cell viability (P12-Ichikawa [6]; 1.71 µM): 139%
- cell viability (P12-Ichikawa [6]; 5.12 µM): 131%
- cell viability (P12-Ichikawa [6]; 15.4 µM): 128%
- cell viability (P12-Ichikawa [6]; 46.1 µM): 6.85%
